Assay results: patent US4568693A, “N-Naphthoylglycine derivatives” (Ayerst, McKenna & Harrison, Inc., priority 1981, dated 1986)

Molecular target: T1, aldose reductase (Bos taurus, UniProt P16116)
T1 construct: the preparation of the enzyme from bovine lens; from tissue; host or cells: bovine lens
Assay: in vitro aldose reductase inhibition (modified Hayman and Kinoshita procedure)
Assay type: biochemical, bovine
Conditions: for inhibition at 10 µM: 10^-5 molar, read-out: % Inhibition at Different Molar Concentration (in vitro), 10^-5; for inhibition at 1 µM: 10^-6 molar, read-out: % Inhibition at Different Molar Concentration (in vitro), 10^-6; for inhibition at 0.1 µM: 10^-7 molar, read-out: % Inhibition at Different Molar Concentration (in vitro), 10^-7
From the text: In the present case the procedure of Hayman and Kinoshita is modified in that the final chromatography step is omitted in the preparation of the enzyme from bovine lens.

Row | SMILES | inhibition at 10 µM | inhibition at 1 µM | inhibition at 0.1 µM
1 | CN(CC(=O)O)C(=S)c1cccc2ccccc12 [Example 43, N--((1naphthalenyl)thioxomethyl)-N--methylglycine] | 85% | 51% | 13%
2 | COCCCOc1ccc2c(C(=S)N(C)CC(=O)O)cccc2c1Br [Example 49, N-[[5-bromo-6-(3-methoxy-propoxy)-1-naphthalenyl]thioxomethyl]-N-methylglycine] | 92% | 87% | 38%
3 | COc1ccc2c(C(=O)N(C)CC(=O)O)cccc2c1C(F)(F)F [N-[[5-(trifluoromethyl)-6-methoxy-1-naphthalenyl]carbonyl]-N-methylglycine] | 94% | 93% | 60%
4 | CN(CC(=O)O)C(=S)c1cccc2c(Br)c(OCc3ccc(Cl)cc3)ccc12 [Example 53a, N-[[5-bromo-6-(4-chlorophenylmethoxy)-1-naphthalenyl]thioxomethyl]-N-methylglycine] | 88% | 44% | 4%
5 | CCCCCOc1ccc2c(C(=S)N(C)CC(=O)O)cccc2c1Br [Example 37, N-[(5-bromo-6-pentyloxy-1-naphthalenyl)thioxomethyl]-N-methylglycine] | 93% | 91% | 55%
6 | COc1ccc2c(C(=S)N(C)CC(=O)O)cccc2c1C#N [Example 48, N-[(5-cyano-6-methoxy-1-naphthalenyl)thioxomethyl]-N-methylglycine] | 98% | 93% | 74%

The next lines start with the values.

Row | inhibition at 10 µM | inhibition at 1 µM | inhibition at 0.1 µM | SMILES
7 | 89% | 74% | 26% | Cc1cccc2c(C(=S)N(C)CC(=O)O)cccc12 [Example 36, N-[(5-methyl-1-naphthalenyl)thioxomethyl]-N-methylglycine]
8 | 54% | 14% |  | O=C(O)CNC(=S)c1cccc2c(Br)cccc12 [Example 54, N-[(5-bromo-1-naphthalenyl)thioxomethyl]glycine]
9 | 91% | 72% | 21% | CC(C)c1cccc2c(C(=S)N(C)CC(=O)O)cccc12 [Example 51, N-[[5-(1-methylethyl)-1-naphthalenyl]thioxomethyl]-N-methylglycine]
10 | 92% | 77% | 27% | C=CCN(CC(=O)O)C(=S)c1cccc2c(Br)cccc12 [Example 56, N-[(5-bromo-1-naphthalenyl)thioxomethyl]-N-(2-propylene)glycine]
11 | 89% | 79% | 32% | CN(CC(=O)O)C(=S)c1cccc2c(C#N)cccc12 [Example 38, N-[(5-cyano-1-naphthalenyl)thioxomethyl]-N-methylglycine]
12 | 64% | 21% |  | CN(CC(=O)O)C(=O)c1cccc2c(Br)cccc12 [N-[(5-Bromo-1-naphthalenyl)carbonyl]-N-methylglycine]
13 | 61% | 16% |  | COc1c(Cl)cc(C(=S)NCC(=O)O)c2ccccc12 [Example 32 (H, H, 3-Cl, 4-CH3 O), N-[(3-chloro-4-methoxy-1-naphthalenyl)thioxomethyl]glycine]
14 | 92% | 74% | 19% | C=C(C)c1cccc2c(C(=S)N(C)CC(=O)O)cccc12 [Example 50, N-[[5-(1-methylethenyl)-1-naphthalenyl]thioxomethyl]-N-methylglycine]
15 | 86% | 69% | 20% | O=C(O)CN(Cc1ccccc1)C(=S)c1cccc2c(Br)cccc12 [Example 59, N-[(5-bromo-1-naphthalenyl)thioxomethyl]-N-(phenylmethyl)glycine]
